Reference: article PMC10591299, “Targeting SHP2 with an Active Site Inhibitor Blocks Signaling and Breast Cancer Cell Phenotypes” (ACS Bio & Med Chem Au, 2023)
Where two headings read alike, the source gives them in different places.

Legend:
SHP2 = biological target: T1, SHP2 (Homo sapiens, UniProt Q06124); assay: Enzyme kinetic study (Michaelis-Menten, Lineweaver-Burk) with DiFMUP; assay type: biochemical; settings: Km increased without change in Vmax
T1 construct: the GST fusion of the PTP domains of SHP2, SHP1, and PTP1B were produced and purified as reported by us previously; GST; made in house
T1 sequence (Q06124 247-517 limits assumed): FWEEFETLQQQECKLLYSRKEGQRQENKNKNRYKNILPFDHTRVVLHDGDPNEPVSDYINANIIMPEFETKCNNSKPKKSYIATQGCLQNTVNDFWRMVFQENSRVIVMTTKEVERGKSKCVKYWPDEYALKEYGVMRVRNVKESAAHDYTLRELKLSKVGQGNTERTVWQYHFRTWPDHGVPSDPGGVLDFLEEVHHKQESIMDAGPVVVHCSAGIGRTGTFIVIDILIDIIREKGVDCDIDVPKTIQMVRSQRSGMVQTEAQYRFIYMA
Procedure: As such, its mechanism of inhibition is expected to be through competitive binding to the active site. To verify this point, we conducted enzyme kinetic studies using the artificial substrate DiFMUP in the presence and absence of CNBCA. Briefly, 400 μM DiFMUP in the PTPase buffer was added to the 12th well in the 96-well plate and then serially diluted to as low as 3.12 μM in the successive wells. After adding the enzyme to a final concentration of 1.0 nM in a total volume of 100 μL, the fluorescence of the enzyme reaction rate was measured for a total of 3 min at 10 s interval in the Synergy 4 plate reader at the excitation and emission wavelengths of 360 and 460 nm, respectively. The data was transformed into relative fluorescence unit (RFU) per second and plotted using the Graphpad software to produce the Michaelis–Menten and the Lineweaver–Burk plots.
In these reactions, the enzyme was added last, and the fluorescence was read for 3 min at 10 s interval. Changes in fluorescence intensity were used to calculate the Km of the SHP2 enzyme for DiFMUP in the presence and absence of CNBCA. The Graphpad Prism was used to prepare the Michaelis–Menten and Lineweaver–Burk plots and to determine the Km values.

BT474 cells = assay: Basal pAkt and pERK1/2 signaling by immunoblotting in BT474 cells; assay type: cell-based; settings: Homo sapiens, BT-474
Procedure: Since SHP2 is an essential mediator of mitogenic and cell survival signaling in breast cancer cells, we determined the effect of CNBCA treatment on activation of ERK1/2 and Akt in the HER2-positive BT474 and in the triple-negative MDA-MB468 cell lines. Cells growing in 2D culture were treated with varying concentrations of CNBCA, ranging from 0.250 to 2.0 μM, for 48 h, and total cell lysates were analyzed by immunoblotting (IB) with antibodies that recognize the activated forms of ERK1/2 (pERK1/2) and Akt (pAkt).

MDA-MB468 cells [1] = assay: Colony formation in soft agar, MDA-MB468; assay type: cell-based; settings: MDA-MB468, 500 nM, 10 days, versus vehicle
Procedure: (§1) Since SHP2 is essential for the growth and transformation of BC cells,[8],[9],[11] we determined the effect of SHP2 inhibition with CNBCA in 2D and 3D culture systems. For the effect on cell growth, BC cells (BT474 and MDA-MB468) were seeded in 2D culture and treated with a single concentration of CNBCA (500 nM), the concentration that provided a 50% inhibition of SHP2 mediated signaling in BT474 cells. Images were collected at the start and every 24 h for a total of 72 h (3 days). […] For effect on anchorage independent growth, approximately 10^6 cells were seeded in soft agar as described previously,[24] and treated with CNBCA at 500 nM concentration for 10 days with refeeding and adjustment of compound concentration. […] Finally, the effect of CNBCA on cancer stem cell properties was determined by the suspension assay, in which only cells with stem-like properties only can grow and form mammospheres.[7],[24],[36] Approximately 10^6 cells were seeded in nonadherent 6 cm plates and treated with CNBCA (500 nM) for 10 days with complementation of media and drug concentration.
For colony formation studies, we used the soft agar assay, which keeps cells anchorage independently, allowing determination on the transformation phenotype of cancer cells, including breast cancer cells.[11],[35] For this assay, we first prepared a 5% stock suspension in PBS by boiling it in a microwave. […]

MDA-MB468 cells [2] = assay: Mammosphere formation in suspension culture, MDA-MB468; assay type: cell-based; settings: MDA-MB468, 500 nM, 10 days, versus vehicle
Procedure: as §1
To further evaluate the anti-breast cancer cell effect of CNBCA, we treated cells seeded in a suspension culture known as the mammosphere assay. In this assay, cells with cancer stem cell properties can grow and form sphere-like cellular aggregates known as mammospheres.[7],[38] […]

mechanism of inhibition (SHP2): competitive inhibitor
IC50 (BT474 cells; BT474, 48 h treatment, band density pAkt and pERK1/2, read-out: IC50 for SHP2 mediated Akt and ERK1/2 activation): ~1000 nM
IC50 (BT474 cells; BT474 cells, read-out: concentration that provided a 50% inhibition of SHP2 mediated signaling): 500 nM
SMILES: CCCCCCCCCOc1ccc(-c2ccc(C(=O)O)cc2)cc1CCCC(=O)O [CNBCA, 3′-(3-carboxypropyl)-4′-(nonyloxy)-[1,1′-biphenyl]-4-carboxylic acid]
colony formation in soft agar (MDA-MB468 cells [1]): fewer and smaller colonies
mammosphere formation (MDA-MB468 cells [2]): fewer and smaller mammospheres
